Results taken from paper PMC11173529, “Structure–Activity Relationship Studies in a Series of Xanthine Inhibitors of SLACK Potassium Channels” (Molecules, 2024).
pIC50: −log10 of the molar value.

Biological target: T1, human A934T SLACK (Homo sapiens, UniProt Q5JUK3, A915T)
T1 construct: host or cells: CHO-K1
T1 sequence (Q5JUK3 1-1235 isoform Q5JUK3-3 A934T): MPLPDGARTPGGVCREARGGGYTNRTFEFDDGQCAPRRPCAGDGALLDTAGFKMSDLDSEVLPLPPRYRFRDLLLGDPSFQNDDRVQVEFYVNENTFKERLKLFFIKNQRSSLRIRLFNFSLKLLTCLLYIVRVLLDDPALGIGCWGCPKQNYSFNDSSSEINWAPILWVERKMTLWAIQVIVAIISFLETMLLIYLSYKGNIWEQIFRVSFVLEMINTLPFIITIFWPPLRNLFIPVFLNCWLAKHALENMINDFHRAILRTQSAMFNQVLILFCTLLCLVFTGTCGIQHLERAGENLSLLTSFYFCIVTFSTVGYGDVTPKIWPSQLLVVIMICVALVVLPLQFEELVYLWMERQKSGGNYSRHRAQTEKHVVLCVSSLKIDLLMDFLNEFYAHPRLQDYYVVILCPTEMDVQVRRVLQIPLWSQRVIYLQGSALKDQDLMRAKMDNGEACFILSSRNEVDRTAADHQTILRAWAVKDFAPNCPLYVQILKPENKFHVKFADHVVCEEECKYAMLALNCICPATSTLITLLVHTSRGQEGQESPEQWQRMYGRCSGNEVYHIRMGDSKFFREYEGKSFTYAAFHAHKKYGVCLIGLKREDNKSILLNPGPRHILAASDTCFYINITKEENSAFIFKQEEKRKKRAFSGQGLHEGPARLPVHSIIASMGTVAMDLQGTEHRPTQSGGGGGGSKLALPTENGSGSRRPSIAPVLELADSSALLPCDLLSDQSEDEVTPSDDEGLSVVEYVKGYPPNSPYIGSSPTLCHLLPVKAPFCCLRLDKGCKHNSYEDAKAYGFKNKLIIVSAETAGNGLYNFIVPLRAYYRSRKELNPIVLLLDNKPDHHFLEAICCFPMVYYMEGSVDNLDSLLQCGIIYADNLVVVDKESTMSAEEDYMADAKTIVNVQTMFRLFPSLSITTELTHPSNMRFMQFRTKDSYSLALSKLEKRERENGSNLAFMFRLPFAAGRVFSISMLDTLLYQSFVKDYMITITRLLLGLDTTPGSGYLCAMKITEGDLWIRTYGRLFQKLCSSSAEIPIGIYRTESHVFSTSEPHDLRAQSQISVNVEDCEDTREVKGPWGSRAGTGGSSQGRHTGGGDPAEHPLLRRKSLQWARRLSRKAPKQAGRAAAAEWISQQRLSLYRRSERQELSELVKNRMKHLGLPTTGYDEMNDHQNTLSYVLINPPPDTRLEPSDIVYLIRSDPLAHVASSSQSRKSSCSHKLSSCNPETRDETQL
Test: Whole-cell APC in CHO cells stably expressing human A934T SLACK
Type: cell-based
Conditions: for pIC50: APC, CHO cells; for Imax: maximum inhibition at 30 µM standardized to VU0606170 (100%)
Text: Development of a useful SLACK inhibitor in vivo tool will require potent activity at the corresponding mouse ortholog as studies in appropriate mouse models will be critical. Thus, we evaluated analogs 32 and 48 in our APC assay using CHO cells stably expressing mouse WT SLACK (Table 6). […] We were also eager to evaluate the same compounds with regard to their ability to inhibit clinically relevant GOF SLACK mutants. Both the C-terminus A934T mutant and transmembrane G288S mutant have been associated with clinical cases of EIMFS [3, 7].
Stably transfected monoclonal HEK293 cell lines expressing Slick, Maxi-K α1/β3, Maxi-K α1/β4, CaV3.2, GIRK 1/2, KV2.1, KV7.2, NaV1.7, and TASK-1 were generated as previously described. Stably transfected monoclonal HEK293 cell lines expressing hERG were generated as previously described. CHO-K1 cells expressing human Slack and disease-associated human Slack mutations, G288S and A934T, were generated by transfecting a PiggyBac TRE mammalian expression vector (VectorBuilder, Chicago, IL, USA) containing KCNT1. FuGENE 6 (Promega, Madison, WI, USA) transfection reagent and protocol, together with Opti-MEM (Thermo Fisher Scientific, Walkham, MA, USA), were utilized.
Automated patch-clamp recording was performed with a SyncroPatch 768 PE system (Nanion, Munich, Germany) as previously described. Whole-cell recordings were performed at room temperature. Cells were harvested by first washing with PBS without Mg^2+ or Ca^2+ (Gibco, Billings, MT, USA) to remove cell culture media, followed by dissociation with TryPLE (Gibco, Billings, MT, USA). Cells were then resuspended and diluted to 100,000 cells/mL in external solution. External solution contained 105 mM NaCl, 4 mM KCl, 1 mM MgCl2, 5 mM CaCl2, 10 mM HEPES, and 40 mM N-Methyl-D-glucamine chloride, titrated to pH of 7.4 and osmolarity of 300 mOsm/kg; internal solution contained 70 mM NaCl, 70 mM KF, 10 mM KCl, 5 mM EGTA, and 5 mM HEPES, titrated to a pH of 7.2 and osmolarity of 295 mOsm/kg.
The APC protocol was set as follows: Cells were held at a […] of −80 mV for 100 ms, then a ramp protocol was performed from −100 mV to 80 mV at 0.4 mV/ms, followed by holding the cell at −80 mV for another 100 ms, then steps were performed at −20 mV, 0 mV, +20 mV, +40 mV, and +60 mV for 100 ms of each step. Whole-cell currents were measured at 0 mV and normalized to current after external buffer addition. […] To obtain the concentration-response relationship graphs and IC50 values, we take the median value of the last 7 current amplitude values obtained for each set of data points collected for a given concentration at a particular step.

SMILES | pIC50 | Imax [%]
COc1cccc(Cn2c(=O)c3c(nc(N(C)Cc4ccccc4)n3C)n(C)c2=O)c1 [Analog 32] | 6.11 | 99
CN(Cc1cccc(F)c1)c1nc2c(c(=O)n(Cc3ccccc3)c(=O)n2C)n1C [Analog 48] | 6.09 | 100
CCCCN(Cc1cccc(F)c1)c1nc2c(c(=O)n(Cc3cccc(OC)c3)c(=O)n2C)n1C [Analog 78] | 6.46 | 
COc1cccc(Cn2c(=O)c3c(nc(N(Cc4cccc(F)c4)CC4CC4)n3C)n(C)c2=O)c1 [Analog 79] | 6.00 | 
CCCCN(Cc1ccc(F)cc1)c1nc2c(c(=O)n(Cc3cccc(OC)c3)c(=O)n2C)n1C [Analog 80] | 6.23 | 
COc1cccc(Cn2c(=O)c3c(nc(N(Cc4ccc(F)cc4)CC4CC4)n3C)n(C)c2=O)c1 [Analog 81] | 5.92 | 
